17 compounds from patent publication US9463247B2, “Branched alkyl and cycloalkyl terminated biodegradable lipids for the delivery of active agents” (ALNYLAM PHARMACEUTICALS, INC., priority 2011, dated 2016) can be followed below.

The assay concerns Factor VII (FVII). Nature of the assay: In vivo determination of efficacy of lipid formulations: FVII knockdown in mice (Biophen FVII chromogenic assay). On the set-up: species or system mouse (C57Bl/6). The note with it: FVII siRNA lipid formulation containing the cationic lipid; i.v. lateral tail vein; female C57Bl/6 mice; serum 24 hours later; dose resulting in a 50% reduction in plasma FVII levels compared to control animals. Here is the method:
Test formulations were prepared using the following in-line mixing method: […]
Individual and separate stock solutions are prepared—one containing lipid and the other siRNA. Lipid stock containing lipid A, DSPC, cholesterol and PEG lipid is prepared by solubilized in 90% ethanol. The remaining 10% is low pH citrate buffer. The concentration of the lipid stock is 4 mg/mL. The pH of this citrate buffer can range between pH 3-5, depending on the type of fusogenic lipid employed. The siRNA is also solubilized in citrate buffer at a concentration of 4 mg/mL. For small scale, 5 mL of each stock solution is prepared.
Stock solutions are completely clear and lipids must be completely solubilized before combining with siRNA. Therefore stock solutions may be heated to completely solubilize the lipids. The siRNAs used in the process may be unmodified oligonucleotides or modified and may be conjugated with lipophilic moieties such as cholesterol.
The individual stocks are combined by pumping each solution to a T-junction. A dual-head Watson-Marlow pump is used to simultaneously control the start and stop of the two streams. A 1.6 mm polypropylene tubing is further downsized to a 0.8 mm tubing in order to increase the linear flow rate. The polypropylene line (ID=0.8 mm) are attached to either side of a T-junction. The polypropylene T has a linear edge of 1.6 mm for a resultant volume of […]. Each of the large ends (1.6 mm) of polypropylene line is placed into test tubes containing either solubilized lipid stock or solubilized siRNA. After the T-junction a single tubing is placed where the combined stream will emit. The tubing is then extending into a container with 2× volume of PBS. The PBS is rapidly stirring. The flow rate for the pump is at a setting of 300 rpm or 110 mL/min. Ethanol is removed and exchanged for PBS by dialysis. The lipid formulations are then concentrated using centrifugation or diafiltration to an appropriate working concentration.
Test formulations are initially assessed for their FVII knockdown in female 7-9 week old, 15-25 g, female C57Bl/6 mice at 0.1, 0.3, 1.0 and 5.0 mg/kg with 3 mice per treatment group. All studies include animals receiving either phosphate-buffered saline (PBS, Control group) or a benchmark formulation. Formulations are diluted to the appropriate concentration in PBS immediately prior to testing. Mice are weighed and the appropriate dosing volumes calculated (10 μl/g body weight). Test and benchmark formulations as well as PBS (for Control animals) are administered intravenously via the lateral tail vein. Animals are anesthetised 24 hours later with an intraperitoneal injection of Ketamine/Xylazine and 500-700 μl of blood is collected by cardiac puncture into serum separator tubes (BD Microtainer). Blood is centrifuged at 2,000×g for 10 minutes at 15° C. and serum is collected and stored at −70° C. until analysis. Serum samples are thawed at 37° C. for 30 minutes, diluted in PBS and aliquoted into 96-well assay plates. Factor VII levels are assessed using a chromogenic assay (Biophen FVII kit, Hyphen BioMed) according to manufacturer's instructions and absorbance is measured in a microplate reader equipped with a 405 nm wavelength filter. Plasma FVII levels are quantified and ED50s (dose resulting in a 50% reduction in plasma FVII levels compared to control animals) calculated using a standard curve generated from a pooled sample of serum from control animals. Those formulations of interest showing high levels of FVII knockdown (ED50<<0.1 mg/kg) are re-tested in independent studies at a lower dose range to confirm potency and establish ED50 levels.

SMILES strings stand for the structures. Some results are limits rather than exact numbers.

As for `CN(C)CCCC(=O)OC(CCCCCC(=O)OC1CCCCC1)CCCCCC(=O)OC1CCCC1` (centres unmarked), the “ED50 (Mouse FVII)” value is given as greater than 0.30 mg/kg.

Consider `CCCCC(CC)C(=O)OCCCCCCCCCC(CCCCCCCCCOC(=O)C(CC)CCCC)OC(=O)CCCN(C)C` (centres unmarked) [drawing 149], for which the “ED50 (Mouse FVII)” value amounted to 0.005 mg/kg.

For the compound `CN(C)CCCC(=O)OC(CCCCCCCCC(=O)OC1CCCC1)CCCCCCCCC(=O)OC1CCCC1`, the “ED50 (Mouse FVII)” value was greater than 0.30 mg/kg. As for `CCCCC(CC)C(=O)OCCCCCCCCCC(CCCCCCCCCOC(=O)C(CC)CCCC)OC(=O)CCCN(C)C` (centres unmarked) [drawing 162], the figure is 0.088 mg/kg; as for `CCCCC(CCCC)OC(=O)CCCCCC(CCCCCC(=O)OC(CCCC)CCCC)OC(=O)CCCN(C)C`, greater than 0.30 mg/kg. In the case of `CCCCCC(CC)C(=O)OCCCCCCCCCC(CCCCCCCCCOC(=O)C(CC)CCCCC)OC(=O)CCCN(C)C` (centres unmarked), the “ED50 (Mouse FVII)” value is on record as 0.008 mg/kg.

As to `CN(C)CCCC(=O)OC(CCCCCCCCCOC(=O)CCC1CCCC1)CCCCCCCCCOC(=O)CCC1CCCC1`, the “ED50 (Mouse FVII)” value was 0.023 mg/kg. As for `CC(OCCCCCCCCCC(CCCCCCCCCOC(=O)C1CCCCC1)OC(=O)CCCN(C)C)C1CCCCC1` (centres unmarked), the figure is 0.032 mg/kg; as for `CN(C)CCCC(=O)OC(CCCCCCCCC(=O)OC1CCCCC1)CCCCCCCCC(=O)OC1CCCCC1`, greater than 0.30 mg/kg. As for `CCCCCC(CCCC)OC(=O)CCCCCCCCC(CCCCCCCCC(=O)OC(CCCC)CCCCC)OC(=O)CCCN(C)C` (centres unmarked), the figure is 0.009 mg/kg; as for `CCCCCCOC(=O)CCCCCCCCCCCC(CCCCCCCCCCCC(=O)OCCCCCC)OC(=O)CCCN(C)C`, 0.013 mg/kg.

For the compound `CC(C)CC(CC(C)C)OC(=O)CCCCCCCCCCCC(CCCCCCCCCCCC(=O)OC(CC(C)C)CC(C)C)OC(=O)CCCN(C)C`, the “ED50 (Mouse FVII)” value is 0.020 mg/kg. For `CCCCC(CCCC)OC(=O)CCCCCCCCC(CCCCCCCCC(=O)OC(CCCC)CCCC)OC(=O)CCCN(C)C` the value was 0.010 mg/kg. As for `CN(C)CCCC(=O)OC(CCCCCCCCC(=O)OCCCC1CCCC1)CCCCCCCCC(=O)OCCCC1CCCC1`, the figure is 0.12 mg/kg. For `CN(C)CCCC(=O)OC(CCCCCC(=O)OC1CCCC1)CCCCCC(=O)OC1CCCC1` the value was greater than 0.30 mg/kg; for `CCCCC(C)C(=O)OCCCCCCCCCC(CCCCCCCCCOC(=O)C(C)CCCC)OC(=O)CCCN(C)C` (centres unmarked), greater than 0.30 mg/kg; for `CN(C)CCCC(=O)OC(CCCCCCCCCOC(=O)C1CCCC1)CCCCCCCCCOC(=O)C1CCCC1`, greater than 0.30 mg/kg.
